Test results reported in the NIST ThermoML archive (doi:10.1021/je200721d).

Assay: xn = mol fraction of the nth substance listed
Settings: Liquid, Vibrating tube method

CCCCCCCCCC [decane] + CCCCCC
Settings	mass density [kg/m3]
352.99 K, 19000 kPa, x2 = 0.7524	655.43
352.99 K, 20000 kPa, x2 = 0.0456	701.21
352.99 K, 20000 kPa, x2 = 0.7524	656.5
352.99 K, 21000 kPa, x2 = 0.0456	702.11
352.99 K, 21000 kPa, x2 = 0.7524	657.54
352.99 K, 22000 kPa, x2 = 0.0456	702.98
352.99 K, 22000 kPa, x2 = 0.7524	658.56
352.99 K, 23000 kPa, x2 = 0.0456	703.83
352.99 K, 23000 kPa, x2 = 0.7524	659.55
352.99 K, 24000 kPa, x2 = 0.0456	704.67
352.99 K, 24000 kPa, x2 = 0.7524	660.56
352.99 K, 25000 kPa, x2 = 0.0456	705.49
352.99 K, 25000 kPa, x2 = 0.7524	661.49
353 K, 1000 kPa, x2 = 0.2185	673.09
353 K, 2000 kPa, x2 = 0.2185	674.25
353 K, 3000 kPa, x2 = 0.2185	675.39
353 K, 4000 kPa, x2 = 0.2185	676.51
353 K, 5000 kPa, x2 = 0.2185	677.65
353 K, 6000 kPa, x2 = 0.2185	678.75
353 K, 7000 kPa, x2 = 0.2185	679.82
353 K, 8000 kPa, x2 = 0.2185	680.92
353 K, 9000 kPa, x2 = 0.2185	681.98
353 K, 10000 kPa, x2 = 0.2185	683.03
353 K, 11000 kPa, x2 = 0.2185	684.07
353 K, 12000 kPa, x2 = 0.2185	685.08
353 K, 13000 kPa, x2 = 0.2185	686.09
353 K, 14000 kPa, x2 = 0.2185	687.09
353 K, 15000 kPa, x2 = 0.2185	688.08
353 K, 16000 kPa, x2 = 0.2185	689.03
353 K, 17000 kPa, x2 = 0.2185	689.97
353 K, 18000 kPa, x2 = 0.2185	690.9
353 K, 19000 kPa, x2 = 0.2185	691.79
353 K, 20000 kPa, x2 = 0.2185	692.7
353 K, 21000 kPa, x2 = 0.2185	693.59
353 K, 22000 kPa, x2 = 0.2185	694.47
353 K, 23000 kPa, x2 = 0.2185	695.35
353 K, 24000 kPa, x2 = 0.2185	696.22
353 K, 25000 kPa, x2 = 0.2185	697.07
353.01 K, 1000 kPa, x2 = 0.4968	654.56
353.01 K, 2000 kPa, x2 = 0.4968	655.89
353.01 K, 3000 kPa, x2 = 0.4968	657.2
353.01 K, 4000 kPa, x2 = 0.4968	658.52
353.01 K, 5000 kPa, x2 = 0.4968	659.83
353.01 K, 6000 kPa, x2 = 0.4968	661.12
353.01 K, 7000 kPa, x2 = 0.4968	662.3
353.01 K, 8000 kPa, x2 = 0.4968	663.52
353.01 K, 9000 kPa, x2 = 0.4968	664.66
353.01 K, 10000 kPa, x2 = 0.4968	665.8
353.01 K, 11000 kPa, x2 = 0.4968	666.94
353.01 K, 12000 kPa, x2 = 0.4968	668.05
353.01 K, 13000 kPa, x2 = 0.4968	669.13
353.01 K, 14000 kPa, x2 = 0.4968	670.21
353.01 K, 15000 kPa, x2 = 0.4968	671.26
353.01 K, 16000 kPa, x2 = 0.4968	672.3
353.01 K, 17000 kPa, x2 = 0.4968	673.3
353.01 K, 18000 kPa, x2 = 0.4968	674.32
353.01 K, 19000 kPa, x2 = 0.4968	675.27
353.01 K, 20000 kPa, x2 = 0.4968	676.25
353.01 K, 21000 kPa, x2 = 0.4968	677.22
353.01 K, 22000 kPa, x2 = 0.4968	678.15
353.01 K, 23000 kPa, x2 = 0.4968	679.08
353.01 K, 24000 kPa, x2 = 0.4968	680
353.01 K, 25000 kPa, x2 = 0.4968	680.91
362.59 K, 1000 kPa, x2 = 0.8991	607.57
362.59 K, 2000 kPa, x2 = 0.8991	609.29
362.59 K, 3000 kPa, x2 = 0.8991	610.97
362.59 K, 4000 kPa, x2 = 0.8991	612.62
362.59 K, 5000 kPa, x2 = 0.8991	614.24
362.59 K, 6000 kPa, x2 = 0.8991	615.83
362.59 K, 7000 kPa, x2 = 0.8991	617.37
362.59 K, 8000 kPa, x2 = 0.8991	618.92
362.59 K, 9000 kPa, x2 = 0.8991	620.4
362.59 K, 10000 kPa, x2 = 0.8991	621.89
362.59 K, 11000 kPa, x2 = 0.8991	623.32
362.59 K, 12000 kPa, x2 = 0.8991	624.72
362.59 K, 13000 kPa, x2 = 0.8991	626.12
362.59 K, 14000 kPa, x2 = 0.8991	627.49
362.59 K, 15000 kPa, x2 = 0.8991	628.8
362.59 K, 16000 kPa, x2 = 0.8991	630.11
362.59 K, 17000 kPa, x2 = 0.8991	631.37
362.59 K, 18000 kPa, x2 = 0.8991	632.62
362.59 K, 19000 kPa, x2 = 0.8991	633.83
362.59 K, 20000 kPa, x2 = 0.8991	635.04
362.59 K, 21000 kPa, x2 = 0.8991	636.21
362.59 K, 22000 kPa, x2 = 0.8991	637.35
362.59 K, 23000 kPa, x2 = 0.8991	638.45
362.59 K, 24000 kPa, x2 = 0.8991	639.52
362.59 K, 25000 kPa, x2 = 0.8991	640.65
362.91 K, 1000 kPa, x2 = 0.0456	674.5
362.91 K, 2000 kPa, x2 = 0.0456	675.7
362.91 K, 3000 kPa, x2 = 0.0456	676.88
362.91 K, 4000 kPa, x2 = 0.0456	678.04
362.91 K, 5000 kPa, x2 = 0.0456	679.18
362.91 K, 6000 kPa, x2 = 0.0456	680.32
